# Results from paper PMC9612222, “Comparative Evaluation of the Antiglycation and Anti-α-Glucosidase Activities of Baicalein, Baicalin (Baicalein 7-O-Glucuronide) and the Antidiabetic Drug Metformin” (Pharmaceutics, 2022).
# Where two headings read alike, the source gives them in different places. Marks after values point to notes of the source that are not given here.
# Legend:
# [1] = DPPH radical scavenging assay; settings: for pD2 (−log EC50) antiradical potency: 70 µM DPPH, 60 min
# Procedure: The free radical scavenging activity of the samples was measured using the DPPH^• method. Sample solutions were prepared and added to 70 µM DPPH^•; the mixtures were kept in the dark for 60 min and absorbance was read at 517 nm using a Beckman Coulter DU 8005 spectrophotometer (Fullerton, CA, USA). The radical scavenging capacity was expressed as a percentage effect.
# [2] = ORAC assay; settings: 5.0 µM compound
# Procedure: The radical oxygen absorption capacity (ORAC) assay was performed as previously described. Briefly, trolox was prepared in phosphate buffer over a concentration range of 6.25 to 50 µM. In 24–well plates, 1.5 mL of fluorescein (0.08 µM) was added, followed by 250 µL of trolox for the control, 250 µL of buffer for the blank, and 250 µL of each inhibitor (5.0 µM). After 10 min of incubation, at 37 °C, 250 µL of 0.15 M AAPH was added. Successively, the PerkinElmer Victor Nivo microplate reader (Waltham, MA, USA) was settled for a fluorescence kinetic reading at 37 °C for one hour, with excitation and emission wavelengths, respectively, of 485 and 530 nm. The results were expressed in TEAC (trolox equivalent antioxidant capacity, TE µmol/µmol compound).
# [3] = test system: BSA; assay: BSA assay (AGE formation by fluorescence); set-up: species or system bovine; settings: for concentration inhibiting glyoxal-induced BSA glycation: 50 mg/mL BSA + 0.003 M glyoxal
# Procedure: Glycated BSA was obtained according to a previously reported method. Briefly, AGEs were detected using BSA (50 mg/mL, pH 7.4), as protein substrate, and glucose (0.8 M), glyoxal (0.003 M) or ribose (0.1 M), as glycation agents. […] The fluorescence intensity was measured at an excitation wavelength of 355 nm and an emission wavelength of 460 nm with a PerkinElmer Victor Nivo microplate reader (Waltham, MA, USA). Inhibition of AGE formation was calculated as the fluorescence difference between glycation under the control condition and in the presence of each inhibitor. Aminoguanidine (2.5 mM, AG) was used as a positive control.
# [4] = GK peptide–ribose assay (peptide cross–linking); settings: 2 days; for reduction of GK peptide cross–linking (in words): 1–100 µM
# Procedure: The N–acetyl–glycyl–lysine methyl ester (GK) peptide–ribose assay was performed with some modifications to a published method. Briefly, GK peptide (27 mg/mL), a synthetic model peptide, was incubated with 40 mg/mL (0.27 M) D–ribose in sodium phosphate buffer (pH 7.4) and test samples were added at final concentrations ranging from 1.0–100 μM. After 48 h of incubation, fluorescence was read at 355 and 460 nm for excitation and emission wavelengths, respectively, with a PerkinElmer Victor Nivo microplate reader (Waltham, MA, USA). The fluorescence measurement allows the calculation of GK peptide glycation inhibition as a percentage difference between the control condition and glycation in the presence of the inhibitor. Aminoguanidine (2.5 mM, AG) was used as a positive control.
# [5] = test system: BSA; assay: Carbonyl content assay (BSA–ribose glycation); set-up: species or system bovine; settings: 50 mg/mL BSA + 0.1 M ribose; for inhibition of carbonyl increase: not concentration dependent
# Procedure: The total protein–bound carbonyl content was determined by derivatization of the carbonyl group with 2,4–dinitrophenylhydrazine (DNPH), which leads to the formation of a stable dinitrophenylhydrazone product, which was monitored spectrophotometrically at 375 nm with a PerkinElmer Victor Nivo microplate reader (Waltham, MA, USA). Glycated BSA samples were mixed with DNPH solution (10 mM in 2.0 M HCl) for 1 h at 37 °C in the dark. The proteins were precipitated with 20% trichloroacetic acid. The mixture was centrifuged at 10,000× g rpm, 10 min at 4 °C, to obtain a pellet and the supernatant was removed. DNPH was removed by extracting the pellet twice using a solution of ethyl acetate/ethanol (1:1). Lastly, the pellet was dissolved in guanidine hydrochloride (6 M) before reading the absorbance at 375 nm. The concentration of DNPH derivatized proteins was determined by the molar extinction coefficient of 22,000 M^−1 cm^−1 [64]. The protein concentration was measured using a BCA assay, and the protein carbonyl concentration was expressed as nmol/mg of protein. Aminoguanidine (2.5 mM, AG) was used as a positive control.
# [6] = test system: α–glucosidase (EC 3.2.1.20, Saccharomyces cerevisiae type I); type: biochemical; settings: for inhibition of α–glucosidase activity: 50 µM compound
# Procedure: The inhibitory activity of baicalein and baicalin was studied using the yeast α–glucosidase assay, using pNPG as a substrate. The enzyme acts by hydrolyzing pNPG into […] and p–nitrophenol (yellow); the reaction was detected at different inhibitor concentrations by variation in chromatic intensity. Acarbose ([…]) was used as a positive control. Each sample was incubated with several α–glucosidase concentrations (0.035, 0.05, 0.07 and 0.1 µM) in PBS solutions (pH 6.8) for 10 min, at 37 °C. The reaction started with the addition of pNPG. Absorbance values were detected at 405 nm for 60 min, using a PerkinElmer Victor Nivo microplate reader spectrophotometer (Waltham, MA, USA). The half–maximal inhibitory concentration (IC50) was estimated by the plot of relative enzyme activity versus inhibitor concentration. The type of enzyme inhibition exerted by baicalein was evaluated from kinetic studies using different substrate concentrations (0.5, 1.0, 1,5 and 2.0 mM pNPG) through the Michaelis–Menten and Lineweaver–Burk plots.
# [7] = test system: HT–29 cells; assay: MTT cell viability assay; type: cell-based, human
# Procedure: Cell viability was assessed with the MTT assay. HT–29 cells were seeded in a 96–well plate at a density of 5000 cells in each well and allowed to grow overnight. The cells were treated with various concentrations of the substances. After 24 h of incubation, an aliquot of MTT solution was added to each well, to reach the final concentration of 500 μg/mL. Subsequently, after the MTT reduction by cellular enzymes, the medium was removed and the insoluble formazan salts were solubilized with 2–propanol. The absorbance of each purple formazan solution was measured using a PerkinElmer Victor Nivo microplate reader (Waltham, MA, USA), at a wavelength of 520 nm.
# [8] = test system: HT–29 cells; assay: HT–29 uptake assay (HPLC–DAD); type: in vitro ADME, human; settings: 1 to 50 µM in cell medium, 30 min–3 h
# Procedure: To evaluate the cellular uptake of compounds, a previously described method was used. Briefly, HT–29 cells were seeded in a 6–well plate at a density of 500,000 cells in each well in a complete medium and allowed to grow until confluence for 48 h, at 37 °C (Figure 11). […] After incubation, an aliquot of the extracellular solution was taken from each well and stored at −20 °C for further analysis. The medium was then removed, the cells were washed with PBS and prepared for the following steps: (i) protein quantification, cells were lysed with 200 μL of lysis buffer and the wells were washed with 200 μL of PBS; and (ii) evaluation of cell uptake, cells were gently scraped with PBS, centrifuged at 1250× g rpm for 5 min, and added with 500 μL of 80% v/v methanolic solution in water/0,1% v/v acetic acid to extract intracellular content. The samples were kept on ice for 15 min, then sonicated and centrifuged at 20,000× g rpm for 10 min. […]
# Chromatographic analyses were performed with an HPLC instrument (Waters Corporation, Milford, DE, USA) equipped with a 1525 binary HPLC pump and a 2998 photodiode array detector. […] Peaks were detected in the range of 210–400 nm. […] The amount of each compound was calculated using a standard calibration curve. The protein content of the lysate was detected using the Lowry protein assay, to express the results as nmol/mg protein.
# [9] = target: rat α–glucosidase; settings: cited from earlier work
# [10] = target: α–glucosidase; settings: cited from earlier work
# [11] = 50 mg/mL BSA + 0.1 M ribose, 5 days
# [12] = 50 mg/mL BSA + 0.8 M glucose, 7 days
# [13] = α–glucosidase 0.035 µM, 2 mM pNPG
# [14] = α–glucosidase 0.05 µM, 2 mM pNPG
# [15] = α–glucosidase 0.07 µM, 2 mM pNPG
# [16] = α–glucosidase 0.10 µM, 2 mM pNPG
smiles,measurement,setting,value
"CC(=O)N[C@@H](CS)C(=O)O [NAC, N–acetylcysteine]",pD2 (−log EC50) antiradical potency,[1],4.38 ± 0.02
same,TEAC (trolox equivalent antioxidant capacity),[2],1.45 ± 0.01 µmol TE/µmol
O=C1O[C@H]([C@@H](O)CO)C(O)=C1O [ascorbic acid],pD2 (−log EC50) antiradical potency,[1],4.77 ± 0.04
same,TEAC (trolox equivalent antioxidant capacity),[2],0.65 ± 0.01 µmol TE/µmol
"O=c1cc(-c2ccccc2)oc2cc(O)c(O)c(O)c12 [baicalein, 5,6,7–trihydroxyflavone]",concentration inhibiting glyoxal-induced BSA glycation,[3]; 7 days,10 µM
same,concentration from which glycated albumin is reduced,[3]; [11],5 µM
same,concentration from which AGE formation is significantly inhibited,[3]; [12],5 µM
same,pD2 of AGE formation (GK cross–linking),[4]; GK peptide + ribose,4.3
same,IC50,"[4]; GK peptide + ribose, read-out: IC50 of AGE formation (GK cross–linking)",49.7 ± 0.5 µM
same,concentration range with detectable reduction of carbonyl increase,[5],10 to 100 µM
same,inhibition of carbonyl increase,[5],15–25%
same,pD2 (−log EC50) antiradical potency,[1],4.91 ± 0.01
same,TEAC (trolox equivalent antioxidant capacity),[2],5.41 ± 0.33 µmol TE/µmol
same,inhibition of α–glucosidase activity,[6]; 0.035 µM α–glucosidase,about 90%
same,inhibition of α–glucosidase activity,[6]; 0.05 µM α–glucosidase,~75%
same,type of enzyme inhibition,"[6]; Lineweaver–Burk plot, 0.05 µM enzyme, 0.5–2.0 mM pNPG",mixed–type
same,Ki,"[6]; mixed–model inhibition, 0.05 µM enzyme, 0.5–2.0 mM pNPG, read-out: inhibition constant (Ki)",25.9 µM
same,IC50,[6]; [13],18.1 µM
same,pD2 (−Log IC50),[6]; [13],4.74 ± 0.02 ^a
same,IC50,[6]; [14],24.1 µM
same,pD2 (−Log IC50),[6]; [14],4.62 ± 0.04 ^a
same,IC50,[6]; [15],51.6 µM
same,pD2 (−Log IC50),[6]; [15],4.29 ± 0.07 ^a
same,IC50,[6]; [16],555 µM
same,pD2 (−Log IC50),[6]; [16],3.26 ± 0.26 ^b
same,change of cell viability,[7]; 5 µM,−25 % of the control
same,IC50,"[7]; Homo sapiens, HT-29, 0.1 to 50 µM, 24 h, read-out: pD2 for inhibition of HT–29 cell viability (converted)",36.3 µM
same,parent compound after incubation with cells (in words),[8],no longer measurable
same,Ki,[9]; ref 49,14.6 µM
same,Ki,[10]; ref 53,45 µM
same,Ki,[10]; ref 54,44 µM
"O=C(O)[C@H]1O[C@@H](Oc2cc3oc(-c4ccccc4)cc(=O)c3c(O)c2O)[C@H](O)[C@@H](O)[C@@H]1O [baicalin, 7–β–D–glucuronic acid of 5,6–trihydroxyflavone]",concentration inhibiting glyoxal-induced BSA glycation,[3]; 7 days,5 µM
same,concentration from which glycated albumin is reduced,[3]; [11],5 µM
same,concentration from which AGE formation is significantly inhibited,[3]; [12],5 µM
same,reduction of GK peptide cross–linking (in words),[4],only slightly and not significantly reduced
same,concentration range with detectable reduction of carbonyl increase,[5],10 to 100 µM
same,lowest concentration tested that inhibited carbonyl formation,[5],5 µM
same,inhibition of carbonyl increase,[5],15–25%
same,pD2 (−log EC50) antiradical potency,[1],4.89 ± 0.03
same,TEAC (trolox equivalent antioxidant capacity),[2],5.90 ± 0.23 µmol TE/µmol
same,effect on α–glucosidase activity (in words),"[6]; 0.05 µM enzyme, 2 mM pNPG, 1–100 µM compound",did not induce any modification
same,IC50,[9]; in vitro,> 400 µM
"CN(C)C(=N)NC(=N)N [metformin, 1,1–dimethylbiguanide]",inhibition of AGE formation (in words),[3]; [11],did not achieve any protection
same,inhibition of AGE formation (in words),[3]; [12],did not show any significant inhibition
same,inhibition of AGE formation (in words),"[3]; 1–100 µM, glucose, glyoxal and ribose (Figure 3)",did not show a significant effect
same,reduction of GK peptide cross–linking (in words),[4],not active
same,DPPH scavenging effect (in words),[1]; 0.1 to 500 µM,did not show any scavenging effect
same,TEAC (trolox equivalent antioxidant capacity),[2],0.48 ± 0.10 µmol TE/µmol
